For this assay, the target named is His-His-USP7 (aa208-560, [C315A]) (Homo sapiens (Human), UniProt Q93009, C315A). Kind of assay: Evaluation of the inhibition of USP7 by Fluorescence Intensity (FLINT) readings. The class given is biochemical. The conditions noted are these: 0.25 nM USP7, 60 minutes at 30° C. preincubation, 500 nM Ubiquitin-Rhodamine-110 substrate, 50% reduction in kinetic rate. The procedure: USP7 activity was measured using Rhodamine-110 c-terminal labelled Ubiquitin as a substrate (Viva Biosciences). Incubation with USP7 results in the release of Rhodamine-110 leading to an increase in fluorescence which can be used in the continuous measurement of USP7 activity.
The USP7 reactions were performed in a 50 μL volume, in 384 well black solid low binding plates (Corning #3575). The reaction buffer consisted of 100 mM Bicine pH 8.0, 0.01% TritonX100, 1 mM TCEP, and 10% DMSO.
0.25 nM His-His-USP7 (aa208-560, [C315A]) was incubated with compound (final concentration 10% DMSO) for 60 minutes at 30° C. The reaction was then initiated by the addition of 500 nM Ubiquitin-Rhodamine-110 substrate and the plate read every 3 minutes for 21 minutes to measure the release of Rhodamine-110. Fluorescence Intensity (FLINT) readings were measured using a […] Neo plate reader (Ex.485 nm, Em.535 nm).
The inhibition of increasing doses of compound was expressed as a percentage reduction in kinetic rate compared to the kinetic rates established between ‘DMSO only’ and ‘total inhibition’ controls (no USP7). The inhibitory concentrations that gave a 50% reduction in kinetic rate (IC50) were determined, from 11-point dose response curves, in XL-Fit using a 4-Parameter Logistic Model (Sigmoidal Dose-Response Model).

Sequence of His-His-USP7 (aa208-560, [C315A]) (Q93009 208-560 C315A): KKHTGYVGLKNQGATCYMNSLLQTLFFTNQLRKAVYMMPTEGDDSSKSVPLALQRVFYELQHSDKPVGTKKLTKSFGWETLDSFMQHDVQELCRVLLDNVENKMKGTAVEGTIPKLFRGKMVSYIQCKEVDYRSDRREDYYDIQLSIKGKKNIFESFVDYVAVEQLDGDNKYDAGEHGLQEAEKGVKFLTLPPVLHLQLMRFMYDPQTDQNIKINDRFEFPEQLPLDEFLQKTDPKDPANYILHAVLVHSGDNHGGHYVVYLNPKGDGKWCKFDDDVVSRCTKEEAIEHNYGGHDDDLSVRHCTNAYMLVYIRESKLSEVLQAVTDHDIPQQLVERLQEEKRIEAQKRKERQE

For orientation: IC50 means the concentration that gives 50% inhibition. A high value points to weaker potency. `CC(C)(C)OC(=O)N1CC[C@@H](C(=O)N2CCC(O)(Cn3cnc4sccc4c3=O)CC2)[C@H](c2ccccc2)C1` [EXAMPLE 2, tert-butyl (3R,4R)-4-[4-hydroxy-4-[(4-oxothieno[2,3-d]pyrimidin-3-yl)methyl]piperidine-1-carbonyl]-3-phenyl-piperidine-1-carboxylate] showed an IC50 of 128 nM.

`CC(C)(C)OC(=O)N1CC[C@@H](C(=O)N2CCC(O)(Cn3cnc4c(ccn4-c4ccccn4)c3=O)CC2)[C@H](c2ccccc2)C1` [EXAMPLE 15, tert-butyl (3R,4R)-4-[4-hydroxy-4-[[4-oxo-7-(2-pyridyl)pyrrolo[2,3-d]pyrimidin-3-yl]methyl]piperidine-1-carbonyl]-3-phenyl-piperidine-1-carboxylate] had an IC50 of 274 nM.

Compound `COc1ccc(-n2ncc3c(=O)n(CC4(O)CCN(C(=O)[C@@H]5CCN(C(=O)OC(C)(C)C)C[C@H]5c5ccccc5)CC4)cnc32)cc1` [EXAMPLE 44, tert-butyl (3R,4R)-4-[4-hydroxy-4-[[1-(4-methoxyphenyl)-4-oxo-pyrazolo[3,4-d]pyrimidin-5-yl]methyl]piperidine-1-carbonyl]-3-phenyl-piperidine-1-carboxylate] had an IC50 of 61.5 nM.

Take `COc1cc(-n2ccc3c(=O)n(CC4(O)CCN(C(=O)[C@@H]5CCN(C(=O)OC(C)(C)C)C[C@H]5c5ccccc5)CC4)cnc32)ccc1F` [EXAMPLE 57, tert-butyl (3R,4R)-4-[4-[[7-(4-fluoro-3-methoxy-phenyl)-4-oxo-pyrrolo[2,3-d]pyrimidin-3-yl]methyl]-4-hydroxy-piperidine-1-carbonyl]-3-phenyl-piperidine-1-carboxylate]: half-maximal inhibition (IC50) was put at 70.2 nM.

In turn, `CC(C)(C)OC(=O)N1CC[C@@H](C(=O)N2CCC(O)(Cn3cnc4c(cnn4-c4ccc5c(c4)OCCO5)c3=O)CC2)[C@H](c2ccccc2)C1` [EXAMPLE 64, tert-butyl (3R,4R)-4-[4-[[1-(2,3-dihydro-1,4-benzodioxin-6-yl)-4-oxo-pyrazolo[3,4-d]pyrimidin-5-yl]methyl]-4-hydroxy-piperidine-1-carbonyl]-3-phenyl-piperidine-1-carboxylate] returned an IC50 of 68.7 nM.

As for `O=C([C@@H]1CCNC[C@H]1c1ccccc1)N1CCC(O)(Cn2cnc3c(cnn3-c3ccccc3)c2=O)CC1` [EXAMPLE 103, 5-[[4-hydroxy-1-[(3R,4R)-3-phenylpiperidine-4-carbonyl]-4-piperidyl]methyl]-1-phenyl-pyrazolo[3,4-d]pyrimidin-4-one], 52.9 nM corresponded to half-maximal inhibition (IC50).

Consider `O=C([C@@H]1CCNC[C@H]1c1ccccc1)N1CCC(O)(Cn2cnc3c(ccn3-c3ccccn3)c2=O)CC1` [EXAMPLE 104, 3-[[4-hydroxy-1-[(3R,4R)-3-phenylpiperidine-4-carbonyl]-4-piperidyl]methyl]-7-(2-pyridyl)pyrrolo[2,3-d]pyrimidin-4-one], for which the IC50 amounted to 394 nM.

The compound `O=C([C@@H]1CCN(CC(F)(F)F)C[C@H]1c1ccccc1)N1CCC(O)(Cn2cnc3[nH]ccc3c2=O)CC1` [EXAMPLE 117, 3-[[4-hydroxy-1-[(3R,4R)-3-phenyl-1-(2,2,2-trifluoroethyl)piperidine-4-carbonyl]-4-piperidyl]methyl]-7H-pyrrolo[2,3-d]pyrimidin-4-one] displayed an IC50 of 1200 nM.

`CN1CC[C@@H](C(=O)N2CCC(O)(Cn3cnc4c(ccn4-c4ccccc4)c3=O)CC2)[C@H](c2ccccc2)C1` [EXAMPLE 121, 3-[[4-hydroxy-1-[(3R,4R)-1-methyl-3-phenyl-piperidine-4-carbonyl]-4-piperidyl]methyl]-7-phenyl-pyrrolo[2,3-d]pyrimidin-4-one] yielded an IC50 of 140 nM.

`O=C([C@@H]1CCNC[C@H]1c1ccccc1)N1CCC(O)(Cn2cnc3c(ccn3-c3ccc(F)cc3)c2=O)CC1` [EXAMPLE 130, 7-(4-fluorophenyl)-3-[[4-hydroxy-1-[(3R,4R)-3-phenylpiperidine-4-carbonyl]-4-piperidyl]methyl]pyrrolo[2,3-d]pyrimidin-4-one] registered an IC50 of 37.7 nM.

The compound `COc1cccc(-n2ccc3c(=O)n(CC4(O)CCN(C(=O)[C@@H]5CCNC[C@H]5c5ccccc5)CC4)cnc32)c1` [EXAMPLE 136, 3-[[4-hydroxy-1-[(3R,4R)-3-phenylpiperidine-4-carbonyl]-4-piperidyl]methyl]-7-(3-methoxyphenyl)pyrrolo[2,3-d]pyrimidin-4-one] yielded an IC50 of 48.6 nM.

Regarding `CN1CC[C@@H](C(=O)N2CCC(O)(Cn3cnc4c(ccn4-c4ccc(F)cc4)c3=O)CC2)[C@H](c2ccccc2)C1` [EXAMPLE 141, 7-(4-fluorophenyl)-3-[[4-hydroxy-1-[(3R,4R)-1-methyl-3-phenyl-piperidine-4-carbonyl]-4-piperidyl]methyl]pyrrolo[2,3-d]pyrimidin-4-one], the 50% inhibitory concentration (IC50) came to 74.8 nM.

`O=C([C@@H]1CCNC[C@H]1c1ccccc1)N1CCC(O)(Cn2cnc3c(ccn3-c3cccc(Cl)c3)c2=O)CC1` [EXAMPLE 142, 7-(3-chlorophenyl)-3-[[4-hydroxy-1-[(3R,4R)-3-phenylpiperidine-4-carbonyl]-4-piperidyl]methyl]pyrrolo[2,3-d]pyrimidin-4-one] showed a half-maximal inhibitory concentration (IC50) of 56.7 nM.

`O=C([C@@H]1CCNC[C@H]1c1ccccc1)N1CCC(O)(Cn2cnc3c(ccn3-c3ccc(Cl)cc3)c2=O)CC1` [EXAMPLE 143, 7-(4-chlorophenyl)-3-[[4-hydroxy-1-[(3R,4R)-3-phenylpiperidine-4-carbonyl]-4-piperidyl]methyl]pyrrolo[2,3-d]pyrimidin-4-one] showed an IC50 of 41.2 nM.

Take `CC(=O)N1CC[C@@H](C(=O)N2CCC(O)(Cn3cnc4c(ccn4-c4ccccc4)c3=O)CC2)[C@H](c2ccccc2)C1` [EXAMPLE 147, 3-[[1-[(3R,4R)-1-acetyl-3-phenyl-piperidine-4-carbonyl]-4-hydroxy-4-piperidyl]methyl]-7-phenyl-pyrrolo[2,3-d]pyrimidin-4-one]: the IC50 worked out at 406 nM.

As to `COc1ccc(-n2ccc3c(=O)n(CC4(O)CCN(C(=O)[C@@H]5CCN(C)C[C@H]5c5ccccc5)CC4)cnc32)cc1` [EXAMPLE 151, 3-[[4-hydroxy-1-[(3R,4R)-1-methyl-3-phenyl-piperidine-4-carbonyl]-4-piperidyl]methyl]-7-(4-methoxyphenyl)pyrrolo[2,3-d]pyrimidin-4-one], the IC50 came out at 52.4 nM.

Regarding `CN1CC[C@@H](C(=O)N2CCC(O)(Cn3cnc4c(ccn4-c4cccc(Cl)c4)c3=O)CC2)[C@H](c2ccccc2)C1` [EXAMPLE 152, 7-(3-chlorophenyl)-3-[[4-hydroxy-1-[(3R,4R)-1-methyl-3-phenyl-piperidine-4-carbonyl]-4-piperidyl]methyl]pyrrolo[2,3-d]pyrimidin-4-one], the IC50 is 64.8 nM.

Regarding `COc1cc(-n2ccc3c(=O)n(CC4(O)CCN(C(=O)[C@@H]5CCNC[C@H]5c5ccccc5)CC4)cnc32)ccc1F` [EXAMPLE 157, 7-(4-fluoro-3-methoxy-phenyl)-3-[[4-hydroxy-1-[(3R,4R)-3-phenylpiperidine-4-carbonyl]-4-piperidyl]methyl]pyrrolo[2,3-d]pyrimidin-4-one], inhibition was half-maximal at 39.3 nM (IC50).

`CC(C)CN1CC[C@@H](C(=O)N2CCC(O)(Cn3cnc4c(ccn4-c4ccccc4)c3=O)CC2)[C@H](c2ccccc2)C1` [EXAMPLE 163, 3-[[4-hydroxy-1-[(3R,4R)-1-isobutyl-3-phenyl-piperidine-4-carbonyl]-4-piperidyl]methyl]-7-phenyl-pyrrolo[2,3-d]pyrimidin-4-one] came in with an IC50 of 108 nM.

`CC(=O)N1CC[C@@H](C(=O)N2CCC(O)(Cn3cnc4c(ccn4-c4ccc(F)cc4)c3=O)CC2)[C@H](c2ccccc2)C1` [EXAMPLE 166, 3-[[1-[(3R,4R)-1-acetyl-3-phenyl-piperidine-4-carbonyl]-4-hydroxy-4-piperidyl]methyl]-7-(4-fluorophenyl)pyrrolo[2,3-d]pyrimidin-4-one] registered a half-inhibitory concentration (IC50) of 102 nM.

Compound `COc1ccc(-n2ncc3c(=O)n(CC4(O)CCN(C(=O)[C@@H]5CC[N+](C)(C)C[C@H]5c5ccccc5)CC4)cnc32)cc1` [EXAMPLE 169, 5-[[1-[(3R,4R)-1,1-dimethyl-3-phenyl-piperidin-1-ium-4-carbonyl]-4-hydroxy-4-piperidyl]methyl]-1-(4-methoxyphenyl)pyrazolo[3,4-d]pyrimidin-4-one] displayed an IC50 of 860 nM.

For the compound `CC(C)C(=O)N1CC[C@@H](C(=O)N2CCC(O)(Cn3cnc4c(ccn4-c4ccccc4)c3=O)CC2)[C@H](c2ccccc2)C1` [EXAMPLE 177, 3-[[4-hydroxy-1-[(3R,4R)-1-(2-methylpropanoyl)-3-phenyl-piperidine-4-carbonyl]-4-piperidyl]methyl]-7-phenyl-pyrrolo[2,3-d]pyrimidin-4-one], half-maximal inhibition (IC50) was put at 103 nM.

The compound `COc1ccc(-n2ccc3c(=O)n(CC4(O)CCN(C(=O)[C@@H]5CCN(C(C)=O)C[C@H]5c5ccccc5)CC4)cnc32)cc1` [EXAMPLE 178, 3-[[1-[(3R,4R)-1-acetyl-3-phenyl-piperidine-4-carbonyl]-4-hydroxy-4-piperidyl]methyl]-7-(4-methoxyphenyl)pyrrolo[2,3-d]pyrimidin-4-one] showed an IC50 of 96.1 nM.

`COc1cccc(-n2ccc3c(=O)n(CC4(O)CCN(C(=O)[C@@H]5CCN(C(C)=O)C[C@H]5c5ccccc5)CC4)cnc32)c1` [EXAMPLE 179, 3-[[1-[(3R,4R)-1-acetyl-3-phenyl-piperidine-4-carbonyl]-4-hydroxy-4-piperidyl]methyl]-7-(3-methoxyphenyl)pyrrolo[2,3-d]pyrimidin-4-one]: the IC50 is 88.4 nM.

For the origin of these results see patent US11046681B2, “Substituted piperidines for the treatment of cancer” (LES LABORATOIRES SERVIER, priority 2016, dated 2021).
